Data reported in patent publication US5502035A, “N-terminus modified analogs of LHRH” (Tap Holdings Inc., priority 1994, dated 1996).
Non-standard residues stand in square brackets, D forms with d. Residues, ends and D or L forms follow the SMILES beside them. *: point of attachment. dAla(benzothien-2-yl) = N[C@H](Cc1cc2ccccc2s1)C(=O)O; Shikimoyl = O=C(C1=C[C@@H](O)[C@@H](O)[C@H](O)C1)*; dPhe(4-Cl) = N[C@H](Cc1ccc(Cl)cc1)C(=O)O; d2Nal = N[C@H](Cc1ccc2ccccc2c1)C(=O)O; Lys(iPr) = CC(C)NCCCC[C@H](N)C(=O)O; NMeY = CN[C@@H](Cc1ccc(O)cc1)C(=O)O; dCit = NC(=O)NCCC[C@@H](N)C(=O)O; d3Pal = N[C@H](Cc1cccnc1)C(=O)O; Isonicotinoyl = O=C(c1ccncc1)*; Nicotinoyl = O=C(c1cccnc1)*; Picolinoyl = O=C(c1ccccn1)*; 2Furoyl = O=C(c1ccco1)*; X1 = O=C([C@@H]1CCCO1)*; X3 = O=C([C@@H]1CCOC1)*; azaGly = NNC(=O)O; βAla = NCCC(=O)O; Sar = CNCC(=O)O

Molecular target: T1, LHRH (Rattus norvegicus, UniProt P30969)
T1 construct: endogenous in cells; host or cells: rat pituitary cells (own knowledge of the cited Haviv 1989 method)
T1 sequence (P30969 1-327): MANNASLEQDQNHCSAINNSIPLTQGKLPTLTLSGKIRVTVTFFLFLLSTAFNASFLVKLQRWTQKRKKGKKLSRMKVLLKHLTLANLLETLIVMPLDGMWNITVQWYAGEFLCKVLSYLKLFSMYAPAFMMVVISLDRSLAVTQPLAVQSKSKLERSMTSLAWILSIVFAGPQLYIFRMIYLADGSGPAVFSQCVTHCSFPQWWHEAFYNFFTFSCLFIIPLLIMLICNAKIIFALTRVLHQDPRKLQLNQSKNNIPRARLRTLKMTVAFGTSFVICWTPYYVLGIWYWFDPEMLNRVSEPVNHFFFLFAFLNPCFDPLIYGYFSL
Experiment: in vitro test for LHRH antagonist potency (pA2)
Assay type: cell-based
Conditions: negative logarithm of the antagonist concentration required to shift the response curve produced by the agonist leuprolide to two-fold higher concentration
Outline: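 Antagonism read against the agonist leuprolide on rat LHRH receptor; value is pA2, the −log of antagonist concentration that doubles the agonist concentration needed for the same response.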

Row | SMILES | Kb [nM]
1 | CC(C)C[C@H](NC(=O)[C@@H](CCCCNC(=O)c1cccnc1)NC(=O)[C@H](Cc1ccc(O)cc1)N(C)C(=O)[C@H](CO)NC(=O)[C@@H](Cc1cccnc1)NC(=O)[C@@H](Cc1ccc(Cl)cc1)NC(=O)[C@@H](Cc1ccc2ccccc2c1)NC(=O)[C@@H]1CCOC1)C(=O)N[C@@H](CCCCNC(C)C)C(=O)N1CCC[C@H]1C(=O)N[C@H](C)C(N)=O [Example 70, N-(R)-Tetrahydrofur-3-oyl-D2Nal-D4ClPhe-D3Pal-Ser-NMeTyr-DLys(Nic)-Leu-Lys(Isp)-Pro-DAlaNH2] (X3-[d2Nal][dPhe(4-Cl)][d3Pal]S[NMeY][dK](Nicotinoyl)L[Lys(iPr)]P[dA]-NH2) | 0.0126
2 | CC(C)C[C@H](NC(=O)[C@@H](CCCCNC(=O)c1cccnc1)NC(=O)[C@H](Cc1ccc(O)cc1)N(C)C(=O)[C@H](CO)NC(=O)[C@@H](Cc1cccnc1)NC(=O)[C@@H](Cc1ccc(Cl)cc1)NC(=O)[C@@H](Cc1ccc2ccccc2c1)NC(=O)CCNC(=O)c1cccnc1)C(=O)N[C@@H](CCCCNC(C)C)C(=O)N1CCC[C@H]1C(=O)N[C@H](C)C(N)=O [Example 6a, N-Nicotinyl-3Aminopropionyl-D2Nal-D4ClPhe-D3Pal-Ser-NMeTyr-DLys(N-epsilon- Nicotinyl) -Leu-Lys(N-epsilon-Isopropyl)-Pro-DAlaNH2] ({Nicotinoyl-βAla}-[d2Nal][dPhe(4-Cl)][d3Pal]S[NMeY][dK](Nicotinoyl)L[Lys(iPr)]P[dA]-NH2) | 0.00891
3 | CC(C)C[C@H](NC(=O)[C@@H](CCCCNC(=O)c1cccnc1)NC(=O)[C@H](Cc1ccc(O)cc1)N(C)C(=O)[C@H](CO)NC(=O)[C@@H](Cc1cccnc1)NC(=O)[C@@H](Cc1ccc(Cl)cc1)NC(=O)[C@@H](Cc1ccc2ccccc2c1)NC(=O)CN(C)C(=O)[C@@H]1CCCO1)C(=O)N[C@@H](CCCCNC(C)C)C(=O)N1CCC[C@H]1C(=O)N[C@H](C)C(N)=O [Example 99, N (S)-2-Tetrahydrofuroyl-Sar-D2Nal-D4ClPhe-D3Pal-Ser-NMeTyr-DLys(Nic),Leu-Lys(Isp)-Pro-DAlaNH2] (X1-[Sar][d2Nal][dPhe(4-Cl)][d3Pal]S[NMeY][dK](Nicotinoyl)L[Lys(iPr)]P[dA]-NH2) | 0.0117
4 | CC(C)C[C@H](NC(=O)[C@@H](CCCNC(N)=O)NC(=O)[C@H](Cc1ccc(O)cc1)N(C)C(=O)[C@H](CO)NC(=O)[C@@H](Cc1cccnc1)NC(=O)[C@@H](Cc1ccc(Cl)cc1)NC(=O)[C@@H](Cc1ccc2ccccc2c1)NC(=O)c1ccco1)C(=O)N[C@@H](CCCNC(=N)N)C(=O)N1CCC[C@H]1C(=O)N[C@H](C)C(N)=O [Example 78d, N-2-Furoyl-D2Nal-D4ClPhe-D3Pal-Ser-NMeTyr-DCit-Leu-Arg-Pro-DAlaNH2] (2Furoyl-[d2Nal][dPhe(4-Cl)][d3Pal]S[NMeY][dCit]LRP[dA]-NH2) | 0.00794
5 | CC(C)C[C@H](NC(=O)[C@@H](CCCCNC(=O)C1=C[C@@H](O)[C@@H](O)[C@H](O)C1)NC(=O)[C@H](Cc1ccc(O)cc1)N(C)C(=O)[C@H](CO)NC(=O)[C@@H](Cc1cccnc1)NC(=O)[C@@H](Cc1ccc(Cl)cc1)NC(=O)[C@@H](Cc1ccc2ccccc2c1)NC(=O)[C@@H](C)NC(=O)c1cccnc1)C(=O)N[C@@H](CCCNC(=N)N)C(=O)N1CCC[C@H]1C(=O)N[C@H](C)C(N)=O [Example 14c, N-Nicotinyl-DAla-D2Nal-D4ClPhe-D3Pal-Ser-NMeTyr-DLys(Shik)-Leu-Arg-Pro-DAlaNH2] (Nicotinoyl-[dA][d2Nal][dPhe(4-Cl)][d3Pal]S[NMeY][dK](Shikimoyl)LRP[dA]-NH2) | 0.00537
6 | CC(C)C[C@H](NC(=O)[C@@H](CCCCNC(=O)c1cccnc1)NC(=O)[C@H](Cc1ccc(O)cc1)N(C)C(=O)[C@H](CO)NC(=O)[C@@H](Cc1cccnc1)NC(=O)[C@@H](Cc1ccc(Cl)cc1)NC(=O)[C@@H](Cc1ccc2ccccc2c1)NC(=O)c1ccco1)C(=O)N[C@@H](CCCCNC(C)C)C(=O)N1CCC[C@H]1C(=O)N[C@H](C)C(N)=O [Example 72a, N-2-Furoyl-D2Nal-D4ClPhe-D3Pal-Ser-NMeTyr-DLys(Nic)-Leu-Lys(Isp)-Pro-DAlaNH2] (2Furoyl-[d2Nal][dPhe(4-Cl)][d3Pal]S[NMeY][dK](Nicotinoyl)L[Lys(iPr)]P[dA]-NH2) | 0.01
7 | CC(C)C[C@H](NC(=O)[C@@H](CCCNC(N)=O)NC(=O)[C@H](Cc1ccc(O)cc1)N(C)C(=O)[C@H](CO)NC(=O)[C@@H](Cc1cccnc1)NC(=O)[C@@H](Cc1ccc(Cl)cc1)NC(=O)[C@@H](Cc1ccc2ccccc2c1)NC(=O)c1ccncc1)C(=O)N[C@@H](CCCNC(=N)N)C(=O)N1CCC[C@H]1C(=O)N[C@H](C)C(N)=O [Example 78e, N-Isonicotinyl-D2Nal-D4ClPhe-D3Pal-Ser-NMeTyr-DCit-Leu-Arg-Pro-DAlaNH2] (Isonicotinoyl-[d2Nal][dPhe(4-Cl)][d3Pal]S[NMeY][dCit]LRP[dA]-NH2) | 0.0162
8 | CC(C)C[C@H](NC(=O)[C@@H](CCCCNC(=O)c1cccnc1)NC(=O)[C@H](Cc1ccc(O)cc1)N(C)C(=O)[C@H](CO)NC(=O)[C@@H](Cc1cc2ccccc2s1)NC(=O)[C@@H](Cc1ccc(Cl)cc1)NC(=O)NNC(=O)c1ccncc1)C(=O)N[C@@H](CCCCNC(C)C)C(=O)N1CCC[C@H]1C(=O)N[C@H](C)C(N)=O [Example 33b, N-Isonicotinyl-Azagly-D4ClPhe-DBal-Ser-NMeTyr-DLys(Nic)-Leu-Lys(Isp)-Pro-DAlaNH2] (Isonicotinoyl-[azaGly][dPhe(4-Cl)][dAla(benzothien-2-yl)]S[NMeY][dK](Nicotinoyl)L[Lys(iPr)]P[dA]-NH2) | 0.02
9 | CC(C)C[C@H](NC(=O)[C@@H](CCCCNC(=O)c1cccnc1)NC(=O)[C@H](Cc1ccc(O)cc1)N(C)C(=O)[C@H](CO)NC(=O)[C@@H](Cc1cccnc1)NC(=O)[C@@H](Cc1ccc(Cl)cc1)NC(=O)[C@@H](Cc1ccc2ccccc2c1)NC(=O)c1ccccn1)C(=O)N[C@@H](CCCCNC(C)C)C(=O)N1CCC[C@H]1C(=O)N[C@H](C)C(N)=O [Example 72e, N-Picolinoyl-D2Nal-D4ClPhe-D3Pal-Ser-NMeTyr-DLys(Nic)-Leu-Lys(Isp)-Pro-DAlaNH2] (Picolinoyl-[d2Nal][dPhe(4-Cl)][d3Pal]S[NMeY][dK](Nicotinoyl)L[Lys(iPr)]P[dA]-NH2) | 0.0141
10 | CC(C)C[C@H](NC(=O)[C@@H](CCCCNC(=O)C1=C[C@@H](O)[C@@H](O)[C@H](O)C1)NC(=O)[C@H](Cc1ccc(O)cc1)N(C)C(=O)[C@H](CO)NC(=O)[C@@H](Cc1cccnc1)NC(=O)[C@@H](Cc1ccc(Cl)cc1)NC(=O)[C@@H](Cc1ccc2ccccc2c1)NC(=O)[C@@H](CO)NC(=O)C1=C[C@@H](O)[C@@H](O)[C@H](O)C1)C(=O)N[C@@H](CCCNC(=N)N)C(=O)N1CCC[C@H]1C(=O)N[C@H](C)C(N)=O [Example 14f, N-Shikimyl-DSer-D2Nal-D4ClPhe-D3Pal-Ser-NMeTyr-DLys(Shik)-Leu-Arg-Pro-DAlaNH2] (Shikimoyl-[dS][d2Nal][dPhe(4-Cl)][d3Pal]S[NMeY][dK](Shikimoyl)LRP[dA]-NH2) | 0.0355
11 | CC(C)C[C@H](NC(=O)[C@@H](CCCCNC(=O)c1cccnc1)NC(=O)[C@H](Cc1ccc(O)cc1)N(C)C(=O)[C@H](CO)NC(=O)[C@@H](Cc1cc2ccccc2s1)NC(=O)[C@@H](Cc1ccc(Cl)cc1)NC(=O)NNC(=O)c1ccco1)C(=O)N[C@@H](CCCCNC(C)C)C(=O)N1CCC[C@H]1C(=O)N[C@H](C)C(N)=O [Example 33a, N-(2-Furoyl)-Azagly-D4ClPhe-DBal-Ser-NMeTyr-DLys(Nic)-Leu-Lys(Isp)-Pro-DAlaNH2] (2Furoyl-[azaGly][dPhe(4-Cl)][dAla(benzothien-2-yl)]S[NMeY][dK](Nicotinoyl)L[Lys(iPr)]P[dA]-NH2) | 0.00631
